Measurements: US9643967B2, “Pyrrolo[3,2-c]pyridine derivatives as TLR inhibitors” (TAKEDA PHARMACEUTICAL COMPANY LIMITED, priority 2013, dated 2017)

target: T1, hTLR9 (Homo sapiens, UniProt Q9NR96); experiment: hTLR9 antagonism (SEAP inhibition assay) in HEK-Blue-hTLR9 (HEK293) cells, ODN-2006 stimulated; type: cell-based; conditions: 1 μM; SEAP, HEK-Blue-hTLR9 cells
T1 construct: expressed in transfected cells; host or cells: HEK-Blue-hTLR9 cells (HEK293)
T1 sequence (Q9NR96 26-1032): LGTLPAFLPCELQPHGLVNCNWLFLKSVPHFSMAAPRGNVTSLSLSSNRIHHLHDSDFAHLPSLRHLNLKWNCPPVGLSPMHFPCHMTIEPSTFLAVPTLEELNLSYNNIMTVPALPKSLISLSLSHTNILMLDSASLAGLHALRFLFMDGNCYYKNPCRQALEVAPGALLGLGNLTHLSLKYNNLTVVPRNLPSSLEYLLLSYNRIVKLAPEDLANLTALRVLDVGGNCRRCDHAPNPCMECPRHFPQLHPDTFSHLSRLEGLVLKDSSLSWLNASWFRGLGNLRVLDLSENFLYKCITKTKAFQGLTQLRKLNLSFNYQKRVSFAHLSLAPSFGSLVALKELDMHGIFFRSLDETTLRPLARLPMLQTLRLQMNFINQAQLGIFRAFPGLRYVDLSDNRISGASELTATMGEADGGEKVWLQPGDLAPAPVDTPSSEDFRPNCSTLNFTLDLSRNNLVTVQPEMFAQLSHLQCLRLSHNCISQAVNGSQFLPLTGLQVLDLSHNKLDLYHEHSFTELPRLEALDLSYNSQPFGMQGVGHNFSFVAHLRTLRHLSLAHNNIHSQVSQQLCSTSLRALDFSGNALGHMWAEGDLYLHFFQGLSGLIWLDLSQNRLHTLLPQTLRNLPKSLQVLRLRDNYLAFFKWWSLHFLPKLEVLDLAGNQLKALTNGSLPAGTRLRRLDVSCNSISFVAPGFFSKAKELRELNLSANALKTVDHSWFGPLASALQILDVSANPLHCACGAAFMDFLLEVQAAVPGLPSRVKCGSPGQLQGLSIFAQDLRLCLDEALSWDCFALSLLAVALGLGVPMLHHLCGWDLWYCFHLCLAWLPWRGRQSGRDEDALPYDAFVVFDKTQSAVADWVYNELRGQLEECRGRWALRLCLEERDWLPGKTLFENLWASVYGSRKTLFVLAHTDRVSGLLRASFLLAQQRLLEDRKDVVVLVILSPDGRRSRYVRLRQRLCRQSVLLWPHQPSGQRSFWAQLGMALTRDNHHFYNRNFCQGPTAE

SMILES | hTLR9 inhibitory activity (% at 1 μM)
Cc1cc2c(cc(CCN3CCOCC3)n2C)c(C2CCC(N3CCN(C(C)C)CC3)CC2)n1 (stereo not shown) [Example B27, 4-[2-[4-[4-(4-isopropylpiperazin-1-yl)cyclohexyl]-1,6-dimethyl-pyrrolo[3,2-c]pyridin-2-yl]ethyl]morpholine] | 95.8%

same assay, conditions: HEK-Blue hTLR9, 1 μM; SEAP, HEK-Blue-hTLR9 cells; read-out: hTLR9 inhibitory activity (% at 1 μM)

SMILES | inhibition at 1 µM
CN1CCN(c2ccc(-c3nccc4[nH]c(CCN5CCOCC5)cc34)cc2)CC1 [Example B2, 4-[2-[4-[4-(4-methylpiperazin-1-yl)phenyl]-1H-pyrrolo[3,2-c]pyridin-2-yl]ethyl]morpholine] | 100%
Cc1cc2c(cc(CN3CCOCC3)n2C)c(-c2ccc(N3CCN(C(C)C)CC3)cc2)n1 [Example A35, 4-[[4-[4-(4-isopropylpiperazin-1-yl]phenyl]-1,6-dimethyl-pyrrolo[3,2-c]pyridin-2-yl]methyl] morpholine] | 96.3%
Cc1cc2c(cc(CCN3CCOCC3)n2C)c(-c2ccc(N3CCN(C(C)C)CC3)cc2F)n1 [Example B19, 4-[2-[4-[2-fluoro-4-(4-isopropylpiperazin-1-yl)phenyl]-1,6-dimethyl-pyrrolo[3,2-c]pyridin-2-yl]ethyl]morpholine] | 100%
Cc1cc2c(cc(CCN3CCOCC3)n2C)c(-c2cccc(N3CCN(C(C)C)CC3)c2)n1 [Example B21, 4-[2-[4-[3-(4-isopropylpiperazin-1-yl)phenyl]-1,6-dimethyl-pyrrolo[3,2-c]pyridin-2-yl]ethyl]morpholine] | 100%
c1cc2[nH]c(CN3CCOCC3)cc2c(-c2ccc(OC3CCNCC3)cc2)n1 [Example A49, 4-[[4-[4-(4-piperidyloxy)phenyl]-1H-pyrrolo[3,2-c]pyridin-2-yl]methyl]morpholine] | 91%
CCN1CCN(c2ccc(-c3nc(C)cc4[nH]c(CN5CCOCC5)cc34)cc2)CC1 [Example A5, 4-[[4-[4-(4-ethylpiperazin-1-yl)phenyl]-6-methyl-1H-pyrrolo[3,2-c]pyridin-2-yl]methyl] morpholine] | 100%
Cc1cc2c(cc(CCN3CCOCC3)n2C)c(-c2ccc(N3CCN(C(C)C)CC3)cc2)n1 [Example B11, 4-[2-[4-[4-(4-isopropylpiperazin-1-yl)phenyl]-1,6-dimethyl-pyrrolo[3,2-c]pyridin-2-yl]ethyl]morpholine] | 80%
Cc1cc2[nH]c(Cn3cccn3)cc2c(-c2ccc(N3CCN(C(C)C)CC3)cc2)n1 [Example A28, 4-[4-(4-isopropylpiperazin-1-yl)phenyl]-6-methyl-2-(pyrazol-1-ylmethyl)-1H-pyrrolo[3,2-c]pyridine] | 91%
CCN1CCN(c2ccc(-c3nc(C)c(C)c4[nH]c(CN5CCOCC5)cc34)cc2)CC1 [Example A38, 4-[[4-[4-(4-ethylpiperazin-1-yl)phenyl]-6,7-dimethyl-1H-pyrrolo[3,2-c]pyridin-2-yl]methyl] morpholine] | 98.5%
CN1CCC(n2cc(-c3nccc4[nH]c(CN5CCOCC5)cc34)cn2)CC1 [Example A63, 4-[[4-[1-(1-methyl-4-piperidyl)pyrazol-4-yl]-1H-pyrrolo[3,2-c]pyridin-2-yl]methyl]morpholine] | 93.4%
Cc1cc2[nH]c(CCCN3CCOCC3)cc2c(-c2ccc(N3CCN(C(C)C)CC3)cc2)n1 [Example C3, 4-[3-[4-[4-(4-isopropylpiperazin-1-yl)phenyl]-6-methyl-1H-pyrrolo[3,2-c]pyridin-2-yl]propyl]morpholine] | 94.8%
Cc1nc(-c2ccc(N3CCN(C)CC3)cc2)c2cc(CCN3CCOCC3)[nH]c2c1C [Example B7, 4-[2-[6,7-dimethyl-4-[4-(4-methylpiperazin-1-yl)phenyl]-1H-pyrrolo[3,2-c]pyridin-2-yl]ethyl]morpholine] | 81.6%
Cc1nc(-c2ccc(N3CCN(C(C)C)CC3)cc2)c2cc(CN3CCCC3)[nH]c2c1C [Example A40, 4-[4-(4-isopropylpiperazin-1-yl)phenyl]-6,7-dimethyl 2-(pyrrolidin-1-ylmethyl)-1H-pyrrolo[3,2-c)pyridine] | 80%
Cc1cc2c(cc(CCN3CCOCC3)n2C)c(-c2ccc(N3CCN(C(C)C)CC3)cc2C)n1 [Example B15, 4-[2-[4-[4-(4-isopropylpiperazin-1-yl)-2-methyl-phenyl]-1,6-dimethyl-pyrrolo[3,2-c]pyridin-2-yl]ethyl]morpholine] | 93.3%
CC(C)N1CCN(c2ccc(-c3nccc4[nH]c(CN5CCC[C@@H]5C(=O)O)cc34)cc2)CC1 [Example A74, (2R)-1-[[4-[4-(4-isopropylpiperazin-1-yl)phenyl]-1H-pyrrolo[3,2-c]pyridin-2-yl]methyl]pyrrolidine-2-carboxylic acid] | 89.4%
Cc1nc(-c2ccc(N3CCN(C(C)C)CC3)cc2)c2cc(CN3CCCCC3)[nH]c2c1C [Example A39, 4-[4-(4-isopropylpiperazin-1-yl)phenyl]-6,7-dimethyl-2-(1-piperidylmethyl)-1H-pyrrolo[3,2-c]pyridine] | 74.3%
Cc1cc2c(cc(CCN3CCOCC3)n2C)c(-c2ccc(N3CCN(C(C)C)CC3)c(C)c2)n1 [Example B16, 4-[2-[4-[4-(4-isopropylpiperazin-1-yl)-3-methyl-phenyl]-1,6-dimethyl-pyrrolo[3,2-c]pyridin-2-yl]ethyl]morpholine] | 91%
Cc1cc2c(cc(CCN3CCOCC3)n2C)c(-c2ccc(N3CCN(C(C)C)[C@@H](C)C3)cc2)n1 [Example B23, 4-[2-[4-[4-[(3S)-4-isopropyl-3-methyl-piperazin-1-yl]phenyl]-1,6-dimethyl-pyrrolo[3,2-c]pyridin-2-yl]ethyl]morpholine] | 99.2%
CC(C)N1CCN(Cc2ccc(-c3nccc4[nH]c(CN5CCOCC5)cc34)cc2)CC1 [Example A55, 4-[[4-[4-[(4-isopropylpiperazin-1-yl)methyl]phenyl]-1H-pyrrolo[3,2-c]pyridin-2-yl]methyl]morpholine] | 96.5%
CC(C)N1CCN(c2ccc(-c3nccc4[nH]c(CN5CCC(F)CC5)cc34)cc2)CC1 [Example A24, 2-[(4-fluoro-1-piperidyl)methyl]-4-[4-(4-isopropylpiperazin-yl)phenyl]-1H-pyrrolo[3,2-c] pyridine] | 95.1%

same assay, conditions: HEK-Blue hTLR9, read-out: hTLR9 inhibitory activity (% at 1 μM)

SMILES | inhibition at 1 µM
CC(C)N1CCN(c2ccc(-c3nccc4[nH]c(C(=O)N5CCOCC5)cc34)cc2)CC1 [Example A82, [4-[4-(4-isopropylpiperazin-1-yl)phenyl]-1H-pyrrolo[3,2-c]pyridin-2-yl]-morpholino-methanone] | 98%
